This passage reports Emax, EC50 and IC50 results from US20140057895A1, “INDAZOLE- AND PYRROLOPYRIDINE-DERIVATIVE AND PHARMACEUTICAL USE THEREOF” (priority 2011, published 2014).

Usually pEC50 stands for the EC50 on a negative log10 scale, so that one unit is a factor of ten. Low values mean a high EC50, high ones a low EC50. As a reminder, the pIC50 is −log10 of the IC50, conventionally taken in molar units.

The target of one test is T1, human 5-HT4b receptor (Homo sapiens, UniProt Q13639).
T1 construct: expressed in transfected cells; host or cells: CHO cells (G418 selection)
T1 sequence (Q13639 whole entry): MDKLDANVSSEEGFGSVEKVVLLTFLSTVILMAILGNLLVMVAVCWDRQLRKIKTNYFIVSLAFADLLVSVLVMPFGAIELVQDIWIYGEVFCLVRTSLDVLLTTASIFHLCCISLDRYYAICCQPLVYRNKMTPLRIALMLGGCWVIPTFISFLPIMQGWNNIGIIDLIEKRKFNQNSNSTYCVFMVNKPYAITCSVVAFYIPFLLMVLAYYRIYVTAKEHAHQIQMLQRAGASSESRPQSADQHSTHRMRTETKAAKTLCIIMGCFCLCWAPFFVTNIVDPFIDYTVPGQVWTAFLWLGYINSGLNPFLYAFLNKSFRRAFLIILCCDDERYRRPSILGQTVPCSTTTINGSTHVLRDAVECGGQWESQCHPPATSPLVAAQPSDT
Description: Test Example 4: Serotonin 4 (5-HT4) receptor agonist activity assay, cAMP HTRF in CHO cells (Table 100). The class given is cell-based. The following applies: mean value; for Emax: CHO, 0.25 h, intrinsic activity, maximal activity of 5-HT defined as 100%, read-out: IA (%); for pEC50: concentration showing 50% of IA. The procedure: The cAMP measurement test used herein was carried out by using CISBIO HTRF (trademark) cAMP Hirange kit according to the manufacturer's instructions attached therewith.
CHO cells expressing human 5-HT4b receptor were incubated in Medium 1 [DMEM/1% NEAA, 1% penicillin/streptomycin (P/S), 0.2 mg/mL GENETICIN (G418), 10% FBS] at 37° C. under 5% CO2 condition. Then, the cells were put into Medium 2 (DMEM/10000 cut FBS, G-418, P/S, NEAA) for 1 to 2 hours, and collected by treating with trypsin containing EDTA. The collected cells were suspended in Assay Buffer 1 [100 mM Hanks/HEPES buffer (pH 7.4)], the suspended cells were mixed with the testing compound on 384-well plates, and the cells were incubated at 31° C. for 15 minutes. To the cells were added cAMP-cryptate solution and cAMP-d2 solution, and they were incubated at room temperature for 1 hour. Then, time-resolved fluorescence was measured by En Vision (excitation wavelength: 330 nm, fluorescence wavelength: 620/665 nm).
An intrinsic activity of the compound [IA (%)] and a concentration showing 50% of IA [EC50 (nM)] were calculated from the obtained results. In particular, the intrinsic activity (IA) was calculated on the basis of the maximal activity of 5-HT (measured from 10^−11 M to 10^−7 M) defined as 100%.
In the following table, the compounds used in the test are shown in numbers which correspond to the Example numbers above where the preparations of the compounds are described.

Another test deals with T2, 5-HT4 receptor (Cavia porcellus, UniProt O70528).
T2 construct: striatum was isolated which was cryopreserved at −80° C. until use; from tissue; host or cells: guinea pig (Slc-Hartley) striatum membranes
T2 sequence (O70528 whole entry): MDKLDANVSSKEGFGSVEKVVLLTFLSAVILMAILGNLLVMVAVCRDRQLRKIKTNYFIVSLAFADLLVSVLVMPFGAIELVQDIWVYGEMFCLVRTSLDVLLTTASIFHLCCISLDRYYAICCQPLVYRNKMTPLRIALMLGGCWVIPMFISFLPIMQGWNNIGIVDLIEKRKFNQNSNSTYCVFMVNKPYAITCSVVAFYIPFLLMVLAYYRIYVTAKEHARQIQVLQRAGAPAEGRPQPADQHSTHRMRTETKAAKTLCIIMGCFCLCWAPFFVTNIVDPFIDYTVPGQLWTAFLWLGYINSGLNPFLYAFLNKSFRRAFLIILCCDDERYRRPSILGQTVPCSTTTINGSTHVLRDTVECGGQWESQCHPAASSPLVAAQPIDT
The experiment in a line: Test Example 3: Guinea pig 5-HT4 receptor binding assay, [3H]-GR113808, striatum membranes (Table 98). The gist of the method:
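Striatal membranes from Slc-Hartley guinea pigs were incubated with 0.1 nM [3H]-GR113808 and test compounds in 50 mM Hepes pH 7.4 at 37° C for 30 min; nonspecific binding was defined with 30 μM serotonin. Bound radioactivity was collected by filtration, and IC50 was derived from inhibition of specific binding.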

Where [1] appears, read: Guinea pig 5-HT4 receptor binding assay, [3H]-GR113808, striatum membranes, mean value of each group, read-out: IC50.

SMILES strings stand for the structures. pEC50, pIC50: −log10 of the molar value. Structures can show the parent of a compound that is named as a salt. Where two headings read alike, the source gives them in different places. Bounds are passed on as bounds.

With `CCc1nn(-c2noc(C3CCN(C(C)C)CC3)n2)c2c(F)c(F)ccc12` [Example 445, 3-ethyl-6,7-difluoro-1-{5-[1-(propan-2-yl)piperidin-4-yl]-1,2,4-oxadiazol-3-yl}-1H-indazole trifluoroacetate], at human 5-HT4b receptor, the Emax came out at 52.1% and the negative logarithm of the EC50 (pEC50) was 7.88. In addition, the negative logarithm of the IC50 (pIC50) on 5-HT4 receptor (setting [1]) is above 7.70.

In the case of `CCc1nn(-c2noc(C3CCN(C4CCCC4)CC3)n2)c2c(F)c(F)ccc12` [Example 447, 1-[5-(1-cyclopentylpiperidin-4-yl)-1,2,4-oxadiazol-3-yl]-3-ethyl-6,7-difluoro-1H-indazole-trifluoroacetate], at human 5-HT4b receptor, the Emax was 56.8% and the pEC50 is 7.91. Besides, the negative-log IC50 (pIC50) at 5-HT4 receptor (setting [1]) is above 7.70.

For `CCc1nn(-c2noc(C3CCN(C4CCOCC4)CC3)n2)c2c(F)c(F)ccc12` [Example 448, 3-ethyl-6,7-difluoro-1-{5-[1-(tetrahydro-2H-pyran-4-yl)piperidin-4-yl]-1,2,4-oxadiazol-3-yl}-1H-indazole trifluoroacetate], at human 5-HT4b receptor, the Emax came out at 57.5% and the pEC50 is 8.05. Also, the pIC50 on 5-HT4 receptor (setting [1]) was above 7.70.

For `CCc1nn(-c2noc(C3CCN(CC4CCOCC4)CC3)n2)c2c(F)c(F)ccc12` [Example 449, 3-ethyl-6,7-difluoro-1-{5-[1-(tetrahydro-2H-pyran-4-ylmethyl)piperidin-4-yl]-1,2,4-oxadiazol-3-yl}-1H-indazole trifluoroacetate], on human 5-HT4b receptor, the Emax stood at 76.4% and the pEC50 is 7.51. On 5-HT4 receptor (setting [1]), the pIC50 was above 7.70.

As for `CC(C)c1nn(-c2noc(C3CCN(C(C)C)CC3)n2)c2c(F)c(F)ccc12` [Example 450, 6,7-difluoro-3-(propan-2-yl)-1-{5-[1-(propan-2-yl)piperidin-4-yl]-1,2,4-oxadiazol-3-yl}-1H-indazole trifluoroacetate], at human 5-HT4b receptor, the Emax is 87.7% and the pEC50 is 7.80. Moreover, the pIC50 on 5-HT4 receptor (setting [1]) was above 7.70.

Regarding `CC(C)c1nn(-c2noc(C3CCN(C4CCC4)CC3)n2)c2c(F)c(F)ccc12` [Example 451, 1-[5-(1-cyclobutylpiperidin-4-yl)-1,2,4-oxadiazol-3-yl]-6,7-difluoro-3-(propan-2-yl)-1H-indazole-trifluoroacetate], at human 5-HT4b receptor, the Emax was 83.1% and the pEC50 is 7.86. The pIC50 at 5-HT4 receptor (setting [1]) was above 7.70.

As to `CC(C)c1nn(-c2noc(C3CCN(C4CCC4)C3)n2)c2c(F)cccc12` (stereo not drawn) [Example 455, 1-[5-(1-cyclobutylpyrrolidin-3-yl)-1,2,4-oxadiazol-3-yl]-7-fluoro-3-(propan-2-yl)-1H-indazole], at human 5-HT4b receptor, the Emax is 99% and the pEC50 was 7.55. Also, the pIC50 at 5-HT4 receptor (setting [1]) was above 7.70.

Consider `CC(=O)N1CCC(N2CCC(O)(c3nc(-n4nc(C(C)C)c5cccc(F)c54)no3)CC2)CC1` [Example 457, 1-(4-{3-[7-fluoro-3-(propan-2-yl)-1H-indazol-1-yl]-1,2,4-oxadiazol-5-yl}-4-hydroxy-1,4′-bipiperidin-1′-yl)ethanone], for which, at human 5-HT4b receptor, the Emax was determined as 72.2% and the pEC50 was 7.90. Moreover, the pIC50 at 5-HT4 receptor is 7.07.

As for `CC(=O)N1CCC(N2CCC(c3nc(-n4nc(C(C)C)c5ccccc54)no3)CC2)CC1` [Example 458, 1-(4-{3-[3-(propan-2-yl)-1H-indazol-1-yl]-1,2,4-oxadiazol-5-yl}-1,4′-bipiperidin-1′-yl)ethanone trifluoroacetate], on human 5-HT4b receptor, the Emax is 85.4% and the pEC50 is 8.57. For the same compound, the negative logarithm of the IC50 (pIC50) on 5-HT4 receptor (setting [1]) was 7.18.

Regarding `CCc1nn(-c2noc(C3CCN(C4CCN(C(=O)OC)CC4)CC3)n2)c2c(F)c(F)ccc12` [Example 459, methyl 4-[3-(3-ethyl-6,7-difluoro-1H-indazol-1-yl)-1,2,4-oxadiazol-5-yl]-1,4′-bipiperidine-1′-carboxylate trifluoroacetate], on human 5-HT4b receptor, the Emax came to 68.2% and the pEC50 was 8.12. Also, the pIC50 at 5-HT4 receptor (setting [1]) is above 7.70.

With `CCc1nn(-c2noc(C3CCN(C4CCN(C(C)=O)CC4)CC3)n2)c2c(F)c(F)ccc12` [Example 460, 1-{4-[3-(3-ethyl-6,7-difluoro-1H-indazol-1-yl)-1,2,4-oxadiazol-5-yl]-1,4′-bipiperidin-1′-yl}ethanone trifluoroacetate], at human 5-HT4b receptor, the Emax stood at 78.6% and the pEC50 was 8.28. At 5-HT4 receptor (setting [1]), the negative logarithm of the IC50 (pIC50) is above 7.70.

Turning to `CCc1nn(-c2noc(C3CCN(C4CCN(C(=O)COC)CC4)CC3)n2)c2c(F)c(F)ccc12` [Example 461, 1-{4-[3-(3-ethyl-6,7-difluoro-1H-indazol-1-yl)-1,2,4-oxadiazol-5-yl]-1,4′-bipiperidin-1′-yl}-2-methoxyethanone trifluoroacetate], on human 5-HT4b receptor, the Emax came out at 65.5% and the pEC50 was 8.36. Further, the pIC50 on 5-HT4 receptor (setting [1]) was above 7.70.

Consider `COC(=O)N1CCC(N2CCC(c3nc(-n4nc(C(C)C)c5ccc(F)c(F)c54)no3)CC2)CC1` [Example 463, methyl 4-{3-[6,7-difluoro-3-(propan-2-yl)-1H-indazol-1-yl]-1,2,4-oxadiazol-5-yl}-1,4′-bipiperidine 1′-carboxylate trifluoroacetate], for which, at human 5-HT4b receptor, the Emax was 64.4% and the pEC50 was 8.08. In addition, at 5-HT4 receptor (setting [1]), the pIC50 is above 7.70.

`CC(=O)N1CCC(N2CCC(c3nc(-n4nc(C(C)C)c5ccc(F)c(F)c54)no3)CC2)CC1` [Example 464, 1-(4-{3-[6,7-difluoro-3-(propan-2-yl)-1H-indazol-1-yl]-1,2,4-oxadiazol-5-yl}-1,4′-bipiperidin-1′-yl}ethanone trifluoroacetate]: on human 5-HT4b receptor, the Emax turned out to be 70% and the pEC50 is 7.51. For the same compound, the negative logarithm of the IC50 (pIC50) at 5-HT4 receptor (setting [1]) was above 7.70.

Regarding `CC(=O)N1CC(CN2CCC(c3nc(-n4nc(C(C)C)c5ccccc54)no3)CC2)C1` [Example 467, 1-{3-[(4-{3-[3-(propan-2-yl)-1H-indazol-1-yl]-1,2,4-oxadiazol-5-yl}piperidin-1-yl)methyl]azetidin-1-yl}ethanone trifluoroacetate], at human 5-HT4b receptor, the Emax was determined as 72.5% and the pEC50 is 8.16. The pIC50 on 5-HT4 receptor (setting [1]) is 7.09.

For `CCc1nn(-c2noc(C3CCN(CC4CN(C(C)=O)C4)CC3)n2)c2c(F)c(F)ccc12` [Example 468, 1-[3-({4-[3-(3-ethyl-6,7-difluoro-1H-indazol-1-yl)-1,2,4-oxadiazol-5-yl]piperidin-1-yl}methyl)azetidin-1-yl]ethanone trifluoroacetate], at human 5-HT4b receptor, the Emax was determined as 69.8% and the negative logarithm of the EC50 (pEC50) was 7.65. In addition, on 5-HT4 receptor (setting [1]), the pIC50 is above 7.70.

Regarding `CCc1nn(-c2noc(C3CCN(CC4CN(C(=O)COC)C4)CC3)n2)c2c(F)c(F)ccc12` [Example 469, 1-[3-({4-[3-(3-ethyl-6,7-difluoro-1H-indazol-1-yl)-1,2,4-oxadiazol-5-yl]piperidin-1-yl}methyl)azetidin-1-yl]-2-methoxyethanone trifluoroacetate], at human 5-HT4b receptor, the Emax worked out at 68.8% and the pEC50 is 8.28. Besides, the pIC50 at 5-HT4 receptor (setting [1]) was 7.69.

For the compound `CCc1nn(-c2noc(C3CCN(CC4CN(C(=O)OC)C4)CC3)n2)c2c(F)c(F)ccc12` [Example 470, methyl 3-({4-[3-(3-ethyl-6,7-difluoro-1H-indazol-1-yl)-1,2,4-oxadiazol-5-yl]piperidin-1-yl}methyl)azetidine-1-carboxylate trifluoroacetate], at human 5-HT4b receptor, the Emax was 70.4% and the pEC50 is 7.87. For the same compound, the negative logarithm of the IC50 (pIC50) on 5-HT4 receptor (setting [1]) is 7.52.

With `CC(=O)N1CC(CN2CCC(c3nc(-n4nc(C(C)C)c5ccc(F)c(F)c54)no3)CC2)C1` [Example 472, 1-{3-[(4-{3-[6,7-difluoro-3-(propan-2-yl)-1H-indazol-1-yl]-1,2,4-oxadiazol-5-yl}piperidin-1-yl)methyl]azetidin-1-yl}ethanone trifluoroacetate], on human 5-HT4b receptor, the Emax was 54.3% and the pEC50 was 7.33. The pIC50 at 5-HT4 receptor (setting [1]) was 7.53.

As for `COCC(=O)N1CC(CN2CCC(c3nc(-n4nc(C(C)C)c5ccc(F)c(F)c54)no3)CC2)C1` [Example 473, 1-{3-[(4-{3-[6,7-difluoro-3-(propan-2-yl)-1H-indazol-1-yl]-1,2,4-oxadiazol-5-yl}piperidin-1-yl)methyl]azetidin-1-yl}-2-methoxyethanone trifluoroacetate], at human 5-HT4b receptor, the Emax was 58.5% and the pEC50 was 7.64. In addition, at 5-HT4 receptor (setting [1]), the pIC50 is 7.62.

In the case of `COC(=O)N1CC(CN2CCC(c3nc(-n4nc(C(C)C)c5ccc(F)c(F)c54)no3)CC2)C1` [Example 474, methyl 3-[(4-{3-[6,7-difluoro-3-(propan-2-yl)-1H-indazol-1-yl]-1,2,4-oxadiazol-5-yl}piperidin-1-yl)methyl]azetidine-1-carboxylate trifluoroacetate], on human 5-HT4b receptor, the Emax came out at 89.4% and the pEC50 was 7.46. For the same compound, the pIC50 on 5-HT4 receptor (setting [1]) was 7.69.
